One data set has as its target T1, NOD1 (Homo sapiens, UniProt Q9Y239).
T1 sequence (Q9Y239 1-953): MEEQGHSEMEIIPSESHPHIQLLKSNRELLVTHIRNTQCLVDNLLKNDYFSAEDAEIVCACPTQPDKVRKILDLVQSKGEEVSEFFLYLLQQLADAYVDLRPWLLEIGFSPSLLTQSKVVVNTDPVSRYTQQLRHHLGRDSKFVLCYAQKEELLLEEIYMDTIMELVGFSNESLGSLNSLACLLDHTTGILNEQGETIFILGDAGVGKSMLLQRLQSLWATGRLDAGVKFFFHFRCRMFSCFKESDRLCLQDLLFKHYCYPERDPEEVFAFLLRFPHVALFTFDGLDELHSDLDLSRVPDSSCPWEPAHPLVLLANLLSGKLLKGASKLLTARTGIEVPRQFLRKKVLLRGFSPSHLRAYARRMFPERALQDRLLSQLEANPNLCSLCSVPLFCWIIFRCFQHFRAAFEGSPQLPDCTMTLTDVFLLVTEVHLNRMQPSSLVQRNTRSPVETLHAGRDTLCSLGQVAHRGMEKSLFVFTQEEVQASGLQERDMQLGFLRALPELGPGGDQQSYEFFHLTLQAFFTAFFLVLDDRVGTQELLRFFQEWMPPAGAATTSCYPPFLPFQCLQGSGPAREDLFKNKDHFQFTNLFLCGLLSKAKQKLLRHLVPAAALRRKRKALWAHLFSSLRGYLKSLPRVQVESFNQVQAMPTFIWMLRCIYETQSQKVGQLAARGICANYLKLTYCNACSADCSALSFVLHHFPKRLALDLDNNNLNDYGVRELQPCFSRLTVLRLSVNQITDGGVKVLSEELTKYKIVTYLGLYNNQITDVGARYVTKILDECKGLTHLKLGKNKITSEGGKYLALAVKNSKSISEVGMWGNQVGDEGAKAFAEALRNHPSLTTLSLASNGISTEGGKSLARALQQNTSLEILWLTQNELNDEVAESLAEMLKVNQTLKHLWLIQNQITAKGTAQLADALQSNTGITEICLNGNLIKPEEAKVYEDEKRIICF
Nature of the data set: Tri-DAP-stimulated IL-8 secretion in primary human monocytes. Also on record: Monocytes were purified from heparinized human whole blood; endogenous in cells; host or cells: primary human blood monocytes. The note with it: human primary peripheral blood monocytes, IL-8 released into medium; read-out: IC50 Monocyte Tri-DAP. The format is cell-based. As to the method:
Monocytes were purified from heparinized human whole blood by centrifugation on Ficoll (Histopaque 1077) followed by Percoll gradients. Monocyte purity was >95% by morphological assessment of Wright’s stained cytospins. Cells were seeded at 100,000 per well in 96-well plates in RPMI containing 10%HI-FBS, pre-incubated for 1 hour with compounds, and then stimulated with either 25 µg/mL Tri-DAP or 1 µg/mL MDP. The concentration of IL-8 in medium samples collected after 24-hour treatment was determined by HTRF whereas IL-1β, IL-6 and TNFα were measured using the MS6000 human pro-inflammatory-4 II tissue culture kit (Meso Scale Discovery).

Data set [1] in a line: Chromatographic hydrophobicity index (Chrom log D). As to conditions: pH 7.4. The format is physicochemical. The text has this:
(§1) Physicochemical analyses of compounds were completed at GSK.

In another data set the target is NOD2 (Homo sapiens, UniProt Q9HC29). As to the kind of experiment: MDP-stimulated IL-8 release in 293/hNOD2 cells. It counts as cell-based. The note with it: HEK293 stably expressing human NOD2, IL-8 released into medium.
The nature of data set [2]: Immobilized artificial membrane (IAM) binding. It counts as physicochemical.
From the text: as §1

Data set [3] can be described thus: Permeability across an artificial membrane. It counts as in vitro ADME. As to conditions: PAMPA.
From the text: as §1
(The PAMPA barrier holds no transporters, so it reflects passive diffusion.)

A further data set has as its target T2, endogenous NOD1 (Homo sapiens, UniProt Q9Y239).
T2 construct: Compound activity on endogenous NOD1 and NOD2 receptors was determined; host or cells: HCT116
T2 sequence (Q9Y239 1-953): T1 sequence (Q9Y239 1-953)
As to the kind of experiment: Tri-DAP-stimulated IL-8 release in HCT116 cells. As to conditions: for inhibition of Tri-DAP-stimulated IL-8 secretion: HCT116, increasing concentrations (16 nM–16 µM); for IC50: human colon carcinoma cells, IL-8 released into medium. The format is cell-based. How it is done:
(§2) For assay, cells were seeded into 96 well plates (90,000 cells/well) in DMEM containing 1% FBS and pre-incubated with compounds for 1 hour before addition of either 25 µg/mL Tri-DAP or 1 µg/mL MDP. The level of IL-8 released into medium after 24-hour incubation was determined by HTRF assay (Cisbio) as described above and fluorescence measured on an Envision model 2102 multilabel plate reader (Perkin Elmer). The activity of compounds against NOD1-induced type I interferon response was determined by inhibition of Tri-DAP stimulated IP-10 secretion in HT-29 cells, maintained in the same medium as for HCT116 cells. The HT-29 cells were seeded into 96 well plates (60,000 cells/well) in DMEM with 1% FBS, pre-incubated with compounds for 1 hour and stimulated for 24 hours with 50 µg/mL Tri-DAP. The concentration of IL-8 released into the medium was measured by HTRF as above, IP-10 was measured using the IP-10/CXCL10 Quantikine ELISA kit (R&D Systems), and IFNβ was measured using the MA6000 human IFN-β tissue culture kit (Meso Scale Discovery).

In a further data set the target is T3, full length human RIP2 (Homo sapiens, UniProt O43353).
T3 construct: autophosphorylation of full length human FLAG-6His tagged RIP2 expressed and purified from baculovirus; FLAG; 6His; made in house
As to the kind of experiment: RIP2 kinase autophosphorylation (ADP-Glo). The note with it: RIPK2 autophosphorylation. It counts as biochemical. As to the method: Direct effects of compounds on RIP2 kinase activity was determined by autophosphorylation of full length human FLAG-6His tagged RIP2 expressed and purified from baculovirus. Enzyme was pre-incubated with compounds in assay buffer (50 mM HEPES pH 7.5, 25 mM MgCl2, 0.05%[w/v] CHAPS, 1 mM DTT and 0.05 mg/mL BSA) in 384-well plates, and then incubated with 10 µM ATP for 2 hours at room temperature. The amount of ADP generated was measured using the ADP-Glo universal ADP detection assay for kinases (Promega) and luminescence quantified on a ViewLux imager.
For orientation: ADP-Glo turns the ADP formed in a reaction into a luminescent signal.

The next data set has as its target TLR2 (Homo sapiens, UniProt O60603). As to the kind of experiment: Pam2CSK4-stimulated IL-8 release in 293/hTLR2 cells. It counts as cell-based. The note with it: IL-8 released into medium.
In another data set the target is T4, endogenous NOD2 (Homo sapiens, UniProt Q9HC29).
T4 construct: Compound activity on endogenous NOD1 and NOD2 receptors was determined; host or cells: HCT116
As to the kind of experiment: MDP-stimulated IL-8 release in HCT116 cells. The format is cell-based. The note with it: for IC50: human colon carcinoma cells, IL-8 released into medium. How it is done:
as §2

The next data set has as its system α1-acid glycoprotein. Nature of the data set: α1-acid glycoprotein (AGP) binding. The format is in vitro ADME.
From the text: as §1

The target in the next data set is human serum albumin (Homo sapiens, UniProt P02768). As to the kind of experiment: Human serum albumin (HSA) binding. It counts as in vitro ADME.
From the text: as §1

NOD2, sequence (Q9HC29 whole entry): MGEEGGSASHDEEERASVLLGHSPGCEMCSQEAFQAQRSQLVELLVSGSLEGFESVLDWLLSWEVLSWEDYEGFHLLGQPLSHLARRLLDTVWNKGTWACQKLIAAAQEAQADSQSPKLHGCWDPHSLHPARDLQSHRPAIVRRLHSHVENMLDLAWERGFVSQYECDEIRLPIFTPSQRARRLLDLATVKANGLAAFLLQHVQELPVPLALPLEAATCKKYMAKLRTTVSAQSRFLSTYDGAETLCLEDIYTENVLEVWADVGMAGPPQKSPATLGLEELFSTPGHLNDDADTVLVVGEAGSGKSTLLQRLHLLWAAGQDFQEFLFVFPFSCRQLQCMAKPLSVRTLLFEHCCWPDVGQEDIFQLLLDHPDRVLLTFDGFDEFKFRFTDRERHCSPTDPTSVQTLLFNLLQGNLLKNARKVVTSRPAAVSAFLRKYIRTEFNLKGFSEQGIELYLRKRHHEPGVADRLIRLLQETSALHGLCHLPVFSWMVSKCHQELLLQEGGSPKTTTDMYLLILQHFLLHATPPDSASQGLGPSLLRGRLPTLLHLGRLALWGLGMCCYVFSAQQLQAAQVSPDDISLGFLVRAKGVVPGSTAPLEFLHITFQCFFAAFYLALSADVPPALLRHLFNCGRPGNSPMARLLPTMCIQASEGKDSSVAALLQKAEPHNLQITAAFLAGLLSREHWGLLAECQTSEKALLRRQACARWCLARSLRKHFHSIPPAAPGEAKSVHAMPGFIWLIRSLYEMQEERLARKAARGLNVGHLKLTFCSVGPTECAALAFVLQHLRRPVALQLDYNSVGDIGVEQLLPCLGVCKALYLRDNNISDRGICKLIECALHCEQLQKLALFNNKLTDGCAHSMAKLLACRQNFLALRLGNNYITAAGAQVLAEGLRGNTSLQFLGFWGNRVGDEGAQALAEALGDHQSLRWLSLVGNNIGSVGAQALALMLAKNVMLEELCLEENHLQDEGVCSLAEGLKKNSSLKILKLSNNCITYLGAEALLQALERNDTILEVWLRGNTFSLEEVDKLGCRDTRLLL
T4 sequence (Q9HC29 whole entry): as above
TLR2, sequence (O60603 21-784): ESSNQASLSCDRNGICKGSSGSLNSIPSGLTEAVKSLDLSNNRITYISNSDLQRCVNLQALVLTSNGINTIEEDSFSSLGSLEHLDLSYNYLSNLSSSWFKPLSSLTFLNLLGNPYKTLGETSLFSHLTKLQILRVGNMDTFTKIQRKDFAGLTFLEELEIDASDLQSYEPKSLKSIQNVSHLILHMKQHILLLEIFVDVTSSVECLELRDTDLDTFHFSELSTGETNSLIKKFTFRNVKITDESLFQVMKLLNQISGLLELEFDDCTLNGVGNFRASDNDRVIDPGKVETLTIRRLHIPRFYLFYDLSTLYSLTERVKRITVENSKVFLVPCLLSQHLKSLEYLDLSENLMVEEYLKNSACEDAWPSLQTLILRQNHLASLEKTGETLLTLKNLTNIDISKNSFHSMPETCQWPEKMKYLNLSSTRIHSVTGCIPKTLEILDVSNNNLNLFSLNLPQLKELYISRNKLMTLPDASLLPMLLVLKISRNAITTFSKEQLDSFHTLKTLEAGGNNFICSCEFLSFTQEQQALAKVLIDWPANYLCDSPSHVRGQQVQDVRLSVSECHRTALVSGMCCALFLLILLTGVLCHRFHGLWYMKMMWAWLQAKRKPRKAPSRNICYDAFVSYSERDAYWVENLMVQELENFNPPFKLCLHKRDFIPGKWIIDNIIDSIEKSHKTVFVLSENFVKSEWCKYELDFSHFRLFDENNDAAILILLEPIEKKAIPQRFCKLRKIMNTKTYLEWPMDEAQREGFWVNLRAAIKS
human serum albumin, sequence (P02768 25-609): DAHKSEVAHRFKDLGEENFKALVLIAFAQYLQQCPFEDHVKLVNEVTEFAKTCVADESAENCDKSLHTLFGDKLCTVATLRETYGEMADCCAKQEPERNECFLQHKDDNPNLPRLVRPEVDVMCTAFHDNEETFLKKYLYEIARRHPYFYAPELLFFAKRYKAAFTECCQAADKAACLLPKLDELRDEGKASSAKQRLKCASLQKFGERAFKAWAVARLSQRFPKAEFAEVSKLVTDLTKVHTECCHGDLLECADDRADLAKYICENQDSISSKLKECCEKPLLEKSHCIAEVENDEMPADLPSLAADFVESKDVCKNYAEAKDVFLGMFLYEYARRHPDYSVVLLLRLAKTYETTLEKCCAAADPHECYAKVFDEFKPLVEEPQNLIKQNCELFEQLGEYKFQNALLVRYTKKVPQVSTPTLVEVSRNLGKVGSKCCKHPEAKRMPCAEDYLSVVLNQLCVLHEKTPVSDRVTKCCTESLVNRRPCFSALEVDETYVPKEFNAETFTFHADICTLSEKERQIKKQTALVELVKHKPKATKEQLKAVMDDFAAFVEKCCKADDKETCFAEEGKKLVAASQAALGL
T3 sequence (O43353 whole entry): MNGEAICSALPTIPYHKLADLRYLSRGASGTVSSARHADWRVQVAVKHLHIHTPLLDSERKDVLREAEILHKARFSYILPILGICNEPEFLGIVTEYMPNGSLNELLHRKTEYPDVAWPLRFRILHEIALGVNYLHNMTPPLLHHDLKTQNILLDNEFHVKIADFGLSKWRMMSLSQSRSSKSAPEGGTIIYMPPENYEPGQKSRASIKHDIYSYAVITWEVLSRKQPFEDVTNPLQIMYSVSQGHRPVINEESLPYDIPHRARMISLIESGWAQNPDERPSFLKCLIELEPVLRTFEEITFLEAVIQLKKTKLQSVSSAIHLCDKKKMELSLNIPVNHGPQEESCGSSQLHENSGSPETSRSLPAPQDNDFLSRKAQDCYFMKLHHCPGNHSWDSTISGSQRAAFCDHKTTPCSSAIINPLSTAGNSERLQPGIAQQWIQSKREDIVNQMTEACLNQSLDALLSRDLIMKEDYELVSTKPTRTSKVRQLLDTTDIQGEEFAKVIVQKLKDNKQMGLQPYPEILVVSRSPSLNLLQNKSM

In general, IC50 refers to the point on the concentration scale where inhibition reaches its midpoint. What is called chromatographic logD is a lipophilicity value derived from retention on a column. The low end stands for a more hydrophilic compound, the high end for a more lipophilic compound. One may read the Papp as a coefficient for how fast a substance crosses the barrier. Low readings indicate slow passage, high ones fast passage. `CCc1ccc(S(=O)(=O)Nc2cc(-n3c(C)nc4ccccc4c3=O)ccc2F)s1` [GSK223]: the IC50 at NOD1 was 1 µM; on NOD2, more than 50 µM; on endogenous NOD1 it was 0.4 µM; against full length human RIP2, more than 50 µM; at TLR2, more than 50 µM; at endogenous NOD2, more than 50 µM. In [1], this molecule yielded a chromatographic logD of 4.27. In data set [2], the IAM binding is 1.68 log K. In addition, the Papp in [3] turned out to be 49 ×10⁻⁶ cm/s. For the same molecule, the “inhibition of Tri-DAP-stimulated IL-8 secretion” value at endogenous NOD1 was “complete inhibition”. The “greatest inhibition of MDP-stimulated IL-8 release” value on endogenous NOD2 (HCT116, at high concentrations) is 30%. The molecule also returned an AGP binding in the data set on α1-acid glycoprotein of 80.81%. In addition, at human serum albumin, the HSA binding is 97.38%.
Regarding `Cc1nc2ccc(NC(=O)c3cccc(NS(=O)(=O)c4ccc(F)cc4)c3)cc2s1` [GSK966], the 50% inhibitory concentration (IC50) on NOD1 is 2 µM; at endogenous NOD1, 0.7 µM; on full length human RIP2, more than 100 µM; at TLR2, more than 50 µM. In addition, the chromatographic logD in data set [1] worked out at 4.64. The IAM binding in [2] is recorded as 2.38 log K. Besides, the Papp in data set [3] was 30 ×10⁻⁶ cm/s. For the same molecule, the “inhibition of Tri-DAP-stimulated IL-8 secretion” value on endogenous NOD1 is “complete inhibition”. Besides, in the data set with α1-acid glycoprotein, the AGP binding was 83.38%. The HSA binding at human serum albumin is given as 97.14%.
In the case of `Cc1ccc(S(=O)(=O)Nc2cccc(C(=O)Nc3ccc4nc(C)sc4c3)c2)cc1` [Compound 16], the half-maximal inhibitory concentration (IC50) was 0.2 µM at NOD1; more than 30 µM at NOD2; 0.06 µM on endogenous NOD1; more than 50 µM on full length human RIP2; more than 50 µM on TLR2. For the same molecule, the chromatographic logD in data set [1] stood at 4.89. The same molecule displayed an IAM binding in data set [2] of 2.45 log K. For the same molecule, in [3], the apparent permeability coefficient (Papp) is 22 ×10⁻⁶ cm/s. This molecule also came in with an AGP binding in the data set on α1-acid glycoprotein of 85.71%. On human serum albumin, the HSA binding was 97.2%.
With `Cc1nc2ccccc2c(=O)n1-c1ccc(Cl)c(NS(=O)(=O)c2ccccc2F)c1` [Compound 22], the 50% inhibitory concentration (IC50) at NOD1 was 0.06 µM; on NOD2 it was more than 50 µM; at endogenous NOD1, 0.03 µM; against full length human RIP2, more than 50 µM; on TLR2, more than 50 µM; on endogenous NOD2, more than 15 µM.
For the molecule `Cn1c(=O)[nH]c(=O)c2c1nc(CCSc1ccccc1)n2Cc1ccccc1` [SB711], the IC50 was 3.2 µM on NOD1; more than 50 µM at NOD2; 0.9 µM on endogenous NOD1; more than 100 µM at full length human RIP2; more than 50 µM at TLR2; more than 50 µM at endogenous NOD2. The chromatographic logD in [1] was determined as 5.95. This molecule came in with an IAM binding in data set [2] of 2.41 log K. In addition, the “inhibition of Tri-DAP-stimulated IL-8 secretion” value against endogenous NOD1 is reported as “complete inhibition”. At human serum albumin, this molecule yielded an HSA binding of 95.94%.

The record behind these values is PMC4013053, “Identification of Selective Small Molecule Inhibitors of the Nucleotide-Binding Oligomerization Domain 1 (NOD1) Signaling Pathway” (PLoS ONE, 2014).
